The record followed here is patent publication US7465718B2, “Ansamycins having improved pharmacological and biological properties” (Conforma Therapeutics Corporation, priority 2002, dated 2008).

Series [1] has as its system HIV-1ROJO. Kind of series: Anti-HIV PBMC assay (reverse transcriptase activity in supernatant).
The subject of series [2] is PBMC. Kind of series: MTS assay to measure cytotoxicity of PBMC. It counts as cell-based, human. Particulars: PBMCs without virus, read-out: TC50 (μM) (50% cytotoxicity). Here is the method:
PBMC's in 96 well plates that were treated with compounds (without virus) were assayed for cell viability and compound toxicity using an MTS assay (CellTiter 96 Aqueous Non-Radioactivity Cell Proliferation Assay, Promega, Madison; Wis.).

The test system of series [3] is SKOV-3 ovarian xenograft. Kind of series: SKOV-3 ovarian xenograft model. It counts as in vivo. To be noted: tumors 200 mm3 before commencement of treatment. From the text: Compounds have also been tested in HER-2 over-expressing tumor models such as BT474 breast and SKOV-3 ovarian carcinoma A therapy experiment with SKOV-3 is shown in FIG. 6. The treatment, doses, and schedule were the same as used in the A549 and MDA435 experiments. In this case, the tumors were allowed to become established and grow to a relatively large size (200 mm3) before commencement of treatment.

For series [4], the target named is rHsp90 (low affinity). Kind of series: Biotin-geldanamycin competition binding, purified native HSP90 protein (rHsp90, low affinity). Particulars: read-out: rHsp90 (low affinity) IC50 nM; inhibition of biotin-GM binding to purified HSP90, 4° C.
Series [5] relates to HSP90 (cell lysate, high affinity). Kind of series: Biotin-geldanamycin competition binding, HSP90 in cell lysate (high affinity).
A short description of series [6]: Water solubility studies (salts dissolved in water at room temperature). To be noted: thermodynamic from solid, HCl salt, read-out: Solubility of the HCl salt in H2O. It counts as physicochemical. Here is the method: Various salts were prepared as described in the example section and dissolved in water at room temperature.
In series [7] the test system is primary human breast tumor xenograft. Kind of series: Transplantable primary human breast tumor xenograft model. It counts as in vivo. Particulars: 30 mg/kg intraperitoneally.
Series [8] concerns MDA435 breast tumor. Kind of series: MDA435 breast tumor model. It counts as in vivo, nude mice. Particulars: four courses of therapy; 25 or 30 mg/kg, 40 or 50 mg/kg. Here is the method:
When the tumors were ˜50 mm3 in size, the animals were randomized into groups of five (10 tumors/group). Therapy commenced under the schedule described for the A549 model. Animals were treated with vehicle (triangles) or one of two doses (25 or 30 mg/kg, squares; 40 or 50 mg/kg, circles) of drugs.

For series [9], the system named is A549 xenografts. Kind of series: A549 xenograft growth in vivo. Particulars: IP injections, three consecutive days each week for four weeks. From the text:
Similar efficacy has been seen with five second-generation ansamycins, some of which are being developed as back-ups to Compound#237.

Series [10] has as its system Her-2. Description: HER2 inhibition assay (Her-2 degradation in MCF7 cells, flow cytometry). It counts as cell-based. To be noted: read-out: HER-2 degradation (IC50 nM). Here is the method:
MCF7 cells are seeded in 24 well plates at a density of approximately 30,000 cells/well and allowed to grow for 16 hours in DMEM supplemented with 10% FBS. Drug is then added at a concentration range of 100 uM to 0.01 uM. Cells are incubated for an additional 24. […] 10,000 events were collected per sample. A fluorescence histogram was generated and the mean fluorescence intensity (mfi) of each sample was determined using Cellquest software. The background was defined as the mfi generated from cells incubated with control IgG, and was subtracted from each sample stained with the HER-2/neu Ab. Percent degradation of Her-2 was calculated as follows: % Her-2 degradation=(mfi HER-2 sample)/(mfi HER-2 untreated cells)×100 Water Solubility Studies

Turning to `Cc1cn([C@H]2C[C@H](N=[N+]=[N-])[C@@H](CO)O2)c(=O)[nH]c1=O` [AZT Control, reference compound], the “TI (therapeutic index, TC50/IC50)” value in [1] (HIV-1ROJO in PBMCs) is on record as greater than 197.6. In addition, the IC50 in [1] (read-out: IC50 (μM) (50% inhibition of virus replication), HIV-1ROJO in fresh human PBMCs, 7 days) was determined as 0.0051 µM. Besides, in [2], the CC50 is greater than 1 µM.

Take `COC1C=CC=C(C)C(=O)NC2=CC(=O)C(NCCCNCCCNC3=C4CC(C)CC(OC)C(O)C(C)C=C(C)C(OC(N)=O)C(OC)C=CC=C(C)C(=O)NC(=CC3=O)C4=O)=C(CC(C)CC(OC)C(O)C(C)C=C(C)C1OC(N)=O)C2=O` (stereo not shown) [Compound #237]: the melting point came to 165 °C. The “tumor growth in SKOV-3 xenograft” value in series [3] is recorded as “suppressed tumor growth almost completely”. The IC50 in series [4] was found to be 2000 nM. The ratio in series [5] (rHsp90 (low affinity) IC50 over lysate (high affinity) IC50) is on record as 67. Also, the IC50 in series [5] (read-out: Lysate (high affinity) IC50 nM, inhibition of biotin-GM binding to HSP90 in cell lysate, 4° C.) was found to be 30 nM. Moreover, the solubility in [6] was no less than 13 mg/mL. Besides, the “tumor growth inhibition in primary human breast tumor xenograft” value in series [7] is reported as 86%. Further, in series [8], the “inhibition of tumor growth in MDA435” value fell in the range of 70 to 100%. Further, the “growth of A549 xenografts” value in series [9] was “blocks the growth”. Further, in series [10], the IC50 amounted to 20 nM.
